Data set [1] deals with T1, MMP-9 (Rattus norvegicus, UniProt P50282).
T1 construct: twenty µg protein from tissue; from tissue; host or cells: heart of spontaneously hypertensive rats (SHR)
As to the kind of experiment: In-gel gelatin zymography of SHR heart, MMP-9. It counts as in vivo, SHR rats. The conditions noted are these: SalA i.p. everyday for 4 weeks. Here is the method:
The enzymatic activities of H9c2 cells or tissue samples were detected by in-gel gelatin zymography. In brief, twenty µg protein from tissue or twenty microliter culture supernatant of H9c2 cells with different treatments was electrophoresed in 10% SDS-PAGE containing 1% gelatin as MMP substrate under non-reducing conditions. After electrophoresis, the gel was washed in 1% Triton X-100 for 1 h, rinsed in water, and incubated overnight in substrate buffer containing 50 mmol/L Tris-HCl, 5 mmol/L CaCl2, and 150 mmol/L NaCl (pH 7.5) at 37°C with gentle shaking. Then, the gel was stained in 0.1% Coomassie Blue R-250 and destained using 10% methanol, 5% acetic acid solution. The gel was scanned using a MiniBis system (DNR Bio-Imaging Systems Ltd) and the detected protein species corresponding to the expected molecular weight of MMP-9 was visualized.
(§1) 2-month old male SHR rats were given rodent chow containing 8% NaCl 4 weeks before SaA treatment to the end of the experiment. Rats were divided into four groups (20 per group) and were injected intraperitoneally with saline or SalA everyday at the indicated dose for 4 weeks. The four groups were named as SalA (0 mg/kg), SalA (2.5 mg/kg), SalA (5 mg/kg), SalA (10 mg/kg) basing on the dose of SalA, respectively.

Data set [2] addresses T2, MMP-9 CD (Homo sapiens, UniProt P14780, DEL217-390).
T2 construct: corresponding to residues 107–216 and 391–444; made in house
T2 sequence (P14780 with tags, fused parts or gaps DEL217-390 limits assumed): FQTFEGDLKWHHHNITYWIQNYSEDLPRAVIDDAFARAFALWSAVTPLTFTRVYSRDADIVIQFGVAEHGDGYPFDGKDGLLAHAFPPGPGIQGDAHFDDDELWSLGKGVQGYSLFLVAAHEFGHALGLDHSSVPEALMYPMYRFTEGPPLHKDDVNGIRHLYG
As to the kind of experiment: MMP-9 inhibition assay (thiopeptolide, enzyme kinetic analysis). It counts as biochemical. How it is done: Phenolic acids at the indicated concentrations were incubated with the reaction mixtures contained MMP-9 CD (15 nmol/L) and 5,5′-dithiobis-(2-nitrobenzoic acid) (1 mmol/L) at 4°C for 30 min. The reaction was initiated by the addition of thiopeptolide (Ac-Pro-Leu-Gly-S-Leu-Leu-Gly-OEt). Hydrolysis of thiopeptolide was monitored at 412 nm using Benchmark Plus™ microplate spectrophotometer (Bio-Rad) at room temperature. Kinetic analysis of phenolic acids against MMP-9 CD was calculated using double reciprocal plots of 1/V versus 1/[thiopeptolide]. The slope of every double reciprocal plot is the Km ^app/Vmax of enzyme at different compound concentration. Secondary plot was drawn through Km ^app/Vmax versus compound concentration. Km ^app is apparent value of Km; Ki is inhibition constant; Ki was calculated using the equation Ki = [Km/Vmax][compound]/(Km ^app/Vmax –Km/Vmax).

A short description of data set [3]: Toxicological evaluation of SalA on SHR. It counts as in vivo, SHR rats. Here is the method:
as §1
After ketamine-xylazine anesthesia (ketamine: xylazine, 60∶5 mg/kg, intramuscularly), heart, liver and kidney samples from experimental animals were fixed with 4% neutral-buffered paraformaldehyde for 24 h. Specimens were paraffin-embedded, sliced at 5 µm, and stained with haematoxylin and eosin. After staining, the sections were rinsed with distilled water, dehydrated, and mounted with Permount. Photomicrographs were taken using an Olympus BX51 microscope plus Olympus DP71 CCD camera (Olympus Corporation). Software Image-Pro Plus version 6.0 was used and approximately 150 cells per heart were measured to determine the average myocyte circumference. Paraffin-embedded slices were also stained with 0.1% picric sirius red (Sigma-Aldrich Inc, St Louis, USA) for fibrillar collagen. Collagen volume fraction (CVF) was expressed as a percentage of the total area of the field occupied by collagen staining.

The values below come from PMC3606118, “Salvianolic Acid A, a Novel Matrix Metalloproteinase-9 Inhibitor, Prevents Cardiac Remodeling in Spontaneously Hypertensive Rats” (PLoS ONE, 2013).

T1 sequence (P50282 108-708): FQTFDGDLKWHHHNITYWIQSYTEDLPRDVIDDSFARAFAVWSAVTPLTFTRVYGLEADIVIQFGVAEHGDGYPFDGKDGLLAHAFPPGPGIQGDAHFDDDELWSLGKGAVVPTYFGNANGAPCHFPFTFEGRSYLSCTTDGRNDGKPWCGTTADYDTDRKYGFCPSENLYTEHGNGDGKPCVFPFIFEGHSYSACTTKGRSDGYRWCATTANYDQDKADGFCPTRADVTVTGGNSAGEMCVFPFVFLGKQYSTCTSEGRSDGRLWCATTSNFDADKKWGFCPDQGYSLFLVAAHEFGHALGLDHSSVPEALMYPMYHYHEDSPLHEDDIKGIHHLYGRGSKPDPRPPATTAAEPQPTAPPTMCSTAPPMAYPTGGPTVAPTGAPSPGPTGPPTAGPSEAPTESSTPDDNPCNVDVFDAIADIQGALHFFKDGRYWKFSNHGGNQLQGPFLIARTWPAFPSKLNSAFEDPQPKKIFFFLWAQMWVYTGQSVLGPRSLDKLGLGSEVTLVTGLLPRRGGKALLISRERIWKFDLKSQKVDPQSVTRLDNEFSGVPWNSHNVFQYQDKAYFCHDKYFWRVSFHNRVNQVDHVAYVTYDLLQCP

One may read the Ki as the dissociation constant of the complex between target and ligand, obtained from inhibition or displacement. Regarding `O=C(/C=C/c1ccc(O)c(O)c1/C=C/c1ccc(O)c(O)c1)O[C@H](Cc1ccc(O)c(O)c1)C(=O)O` [SalA, salvianolic acid A], the “MMP-9 activity in heart of SHRs” value in data set [1] is on record as “inhibited by SalA significantly”. The “inhibition mode on MMP-9” value in data set [2] (double reciprocal plots) was “competitively”. In data set [2] (spectrophotometric enzyme kinetic assay, thiopeptolide substrate), this compound yielded a Ki of 5.74 ± 1.15 µM. The “signs of toxicity or mortality” value in data set [3] (intraperitoneally administered to rats for 1 month) was “failed to induce any signs of toxicity or mortality”. Further, the “body weight, food consumption” value in data set [3] (rat, in vivo, 10 mg/kg) is reported as “no changes”.
